Patent publication US6022885A, “Pyrrolidine and thiazole derivatives with antibacterial and . metallo-.beta-lactamase inhibitory properties” (SmithKline Beecham p.l.c., priority 1995, dated 2000)
Read-outs that look alike come from different tables or passages of the source.

Legend:
[1] = target: B. fragilis CfiA metallo-β-lactamase (Bacteroides fragilis, UniProt P25910); test: I50 screen, nitrocefin reporter substrate; assay type: biochemical; settings: 25 mM PIPES pH 7, 37° C., nitrocefin 91 μM, 5 minute preincubation, Zn^2+ 100 μM
Method: (§1) The inhibitory activity of the compounds of the invention was measured in 25 mM PIPES pH 7 buffer at 10 concentrations (1000, 333, 111, 37, 12.3, 4.1, 1.4 0.46, 0.15 and 0.05 μM) at 37° C. using nitrocefin (91 μM, final concentration) as the reporter substrate. The assays were performed with a 5 minute preincubation of enzyme and inhibitor and were conducted in the presence of added zinc sulphate (Zn^2+ 100 μM, final concentration). The methodology is described in detail in the following references: Payne et al (1991), J. Antimicrob. Chemother., 28:255; Payne et al (1994), Antimicrob. Agents and Chemother., 38:767.

[2] = target: T1, Bacillus cereus II metallo-β-lactamase (Bacillus cereus, UniProt P04190); test: I50 screen, nitrocefin reporter substrate; assay type: biochemical; settings: 25 mM PIPES pH 7, 37° C., nitrocefin 91 μM, 5 minute preincubation, Zn^2+ 100 μM
T1 construct: nitrocefin assay with added zinc
Method: as §1

[3] = target: T2, Xanthomonas maltophilia L-1 metallo-β-lactamase (Stenotrophomonas maltophilia, UniProt P52700); test: I50 screen, nitrocefin reporter substrate; assay type: biochemical; settings: 25 mM PIPES pH 7, 37° C., nitrocefin 91 μM, 5 minute preincubation, Zn^2+ 100 μM
T2 construct: nitrocefin assay with added zinc
Method: as §1

[4] = tested on: B. fragilis 460; test: Antibacterial activity (MIC) alone and in combination with carbapenem antibiotics, B. fragilis 460; assay type: cell-based, Bacteroides fragilis
From the text: (§2) Antibacterial activity of compounds of the invention in combination with carbapenem antibiotics against strains of Bacteroides fragllis which produce metallo-β-lactamase:
(§3) [MIC =minimum inhibitory concentration (μg/ml)]

[5] = tested on: B. fragilis 262; test: Antibacterial activity (MIC) alone and in combination with carbapenem antibiotics, B. fragilis 262; assay type: cell-based, Bacteroides fragilis
From the text: as §2, §3

[6] = read-out: I50 values against B. fragilis CfiA metallo-β-lactamase
[7] = I50 values against B. fragilis CfiA metallo-β-lactamase
[8] = Bacteroides fragilis, alone, B. fragilis 460, CfiA, read-out: MIC alone
[9] = Bacteroides fragilis, alone, B. fragilis 262, CfiA, read-out: MIC alone

Sequence of B. fragilis CfiA metallo-β-lactamase (P25910 19-249): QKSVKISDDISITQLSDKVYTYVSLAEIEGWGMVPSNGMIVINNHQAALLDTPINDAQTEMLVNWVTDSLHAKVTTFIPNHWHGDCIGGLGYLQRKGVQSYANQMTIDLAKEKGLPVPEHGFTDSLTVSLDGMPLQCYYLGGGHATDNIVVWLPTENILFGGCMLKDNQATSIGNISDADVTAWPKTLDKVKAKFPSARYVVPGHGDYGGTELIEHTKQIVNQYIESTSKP
T1 sequence (P04190 31-257): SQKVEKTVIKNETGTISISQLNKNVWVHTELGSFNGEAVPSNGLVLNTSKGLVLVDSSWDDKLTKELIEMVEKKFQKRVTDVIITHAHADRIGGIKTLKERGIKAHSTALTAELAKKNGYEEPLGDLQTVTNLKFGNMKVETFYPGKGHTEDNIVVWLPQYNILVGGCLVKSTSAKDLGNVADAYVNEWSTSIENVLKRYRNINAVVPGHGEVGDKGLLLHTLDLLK
T2 sequence (P52700 34-290): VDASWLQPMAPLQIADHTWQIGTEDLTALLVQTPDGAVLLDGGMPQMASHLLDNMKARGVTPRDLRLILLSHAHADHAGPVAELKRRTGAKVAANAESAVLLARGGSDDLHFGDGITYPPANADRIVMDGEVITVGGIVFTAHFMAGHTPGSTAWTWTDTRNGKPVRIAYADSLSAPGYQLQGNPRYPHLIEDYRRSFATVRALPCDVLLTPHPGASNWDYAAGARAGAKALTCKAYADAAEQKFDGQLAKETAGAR

| SMILES | IC50 [1, 6] [µM] | other results |
| --- | --- | --- |
| CC1(C)[C@H](C(=O)O)N(C(=O)[C@@H](CS)Cc2ccccc2)C[S+]1[O-] (single isomer, unassigned) [Example 26] | < 1 |  |
| CC1(C)[C@H](C(=O)O)N(C(=O)[C@@H](CS)Cc2ccccc2)C[S+]1[O-] (single isomer, unassigned) [Example 27] |  | activity against Bacillus cereus II metallo-β-lactamase [2]: weak but significant activity; activity against Xanthomonas maltophilia L-1 metallo-β-lactamase [3]: weak but significant activity |
| O=C(O)[C@H]1CSCN1C(=O)C(CS)Cc1ccccc1 (single isomer, unassigned) [Example 30, 3-[2'(R or S)-benzyl-3'-mercaptopropionyl]-4(S)-carboxythiazolidine] | < 500 |  |
| O=C(O)[C@H]1CSCN1C(=O)C(CS)Cc1ccccc1 (single isomer, unassigned) [Example 31, 3-[2'(S or R)-benzyl-3'-mercaptopropionyl]-4(S)-carboxythiazolidine] | < 500 |  |
| CC1(C)SCN(C(=O)C(CS)Cc2ccccc2)[C@H]1C(=O)O (stereo partly drawn) [Example 2, 3-[2'(RS)-benzyl-3'-mereaptopropionyl]-4(S)-carboxy-5,5-dimethylthiazolidine] | < 1 |  |
| CC(CS)C(=O)N1CCC[C@@H]1C(=O)O (stereo partly drawn) [Example 4, N-[3'-Mercapto-2'(RS)-methylpropionyl]-D-proline] |  | IC50 [1, 7]: < 500 µM |
| C[C@H](CS)C(=O)N1CCC[C@@H]1C(=O)O [Example 6, N-(3'-mercapto-2'(S)-methylpropionyl)-D-proline] |  | IC50 [1, 7]: < 500 µM |
| CC1(C)SCN(C(=O)CCS)[C@H]1C(=O)O [Example 8, 3-[3'-Mercaptopropionyl]-4(S)-carboxy-5,5-dimethylthiazolidine] | < 500 |  |
| CC1(C)SCN(C(=O)C(CS)Cc2ccccc2)[C@@H]1C(=O)O (stereo partly drawn) [Example 12, 3-[2'(RS)-benzyl-3'-mercaptopropionyl]-4(R)-carboxy-5,5-dimethylthiazolidine] | < 500 |  |
| CC(CS)C(=O)N1CSC(C)(C)[C@@H]1C(=O)O (stereo partly drawn) [Example 14, 3-[3'-Mercapto-2'(S)-methylpropionyl]-4(S)-carboxy-5,5-dimethylthiazolidine] | < 500 |  |
| O=C(O)[C@H]1CCCN1C(=O)C(CS)Cc1ccccc1 (stereo partly drawn) [Example 16, N-[2'(PS)-benzyl-3'-mercaptopropionyl]-D-proline] | < 500 |  |
| O=C(O)[C@H]1CSCN1C(=O)C(CS)Cc1ccccc1 (stereo partly drawn) [Example 18, 3-[2'(RS)-benzyl-3'-mercaptopropionyl]-4(S)-carboxythiazolidine] | < 500 |  |
| CC1(C)SCN(C(=O)C(CS)Cc2ccccc2)C1C(=O)O [Example 19, 3-[2'(R)-benzyl-3'-mercaptopropionyl]-4(S)-carboxy-5,5-dimethylthiazolidine] |  | activity against Bacillus cereus II metallo-β-lactamase [2]: weak but significant activity; activity against Xanthomonas maltophilia L-1 metallo-β-lactamase [3]: weak but significant activity |
| CC1(C)SCN(C(=O)[C@@H](CS)Cc2ccccc2)[C@H]1C(=O)O [Example 20, 3-[2'(S)-benzyl-3'-mercaptopropionyl]-4(S)-carboxy-5,5-dimethylthiazolidine] | < 1 | MIC [4, 8]: > 512 µg/mL; MIC [5, 9]: > 512 µg/mL |
| CC(CS)C(=O)N1CSC(C)(C)C1C(=O)O [Example 21, 3-[3'-Mercapto-2'(R)-methylpropionyl]-4(S)-carboxy-5,5-dimethylthiazolidine] |  | activity against Bacillus cereus II metallo-β-lactamase [2]: weak but significant activity; activity against Xanthomonas maltophilia L-1 metallo-β-lactamase [3]: weak but significant activity |
| CC(CS)C(=O)N1CSC(C)(C)C1C(=O)O [Example 23, 3-[Mercapto-2'(S)-methylpropionyl]-4(R)-carboxy-5,5-dimethylthiazolidine] | < 500 |  |
| O=C(O)[C@@H]1CCCN1C(=O)C(CS)Cc1ccccc1 (stereo partly drawn) [Example 25, N-[2'(RS)-benzyl-3'-mercaptopropionyl]-L-proline] | < 500 |  |
| CC1(C)SCN(C(=O)[C@@H](CS)Cc2ccccc2)[C@@H]1C(=O)O [Example 28, 3-[2'(S)-benzyl-3'-mercaptopropionyl]-4(R)-carboxy-5,5-dimethylthiazolidine] | < 500 |  |
| CC1(C)SCN(C(=O)[C@H](CS)Cc2ccccc2)[C@@H]1C(=O)O [Example 29, 3-[2'(R)-benzyl-3'-mercaptopropionyl]-4(R)-carboxy-5,5-dimethylthiazolidine] | < 500 |  |
| CC1(C)SCN(C(=O)C(CS)CCc2ccccc2)[C@H]1C(=O)O (stereo partly drawn) [Example 32, 3-[2'(RS)-mercaptomethyl-4'-phenylbutanoyl]-4(S)-carboxy-5,5-dimethylthiazolidine] | < 500 |  |
| O=C(O)[C@H]1CSCN1C(=O)C(CS)CCCc1ccccc1 (stereo partly drawn) [Example 33, 3-[2'(RS)-mercaptomethyl-5'-phenylpentanoyl]-4(S)-carboxythiazolidine] | < 500 |  |
| C[C@@H](O)[C@H]1C(=O)N2C(C(=O)O)=C(SCCN=CN)C[C@H]12 [Imipenem] |  | MIC [4, 8]: 16 µg/mL; MIC [5, 9]: 4 µg/mL |
| C[C@@H](O)[C@H]1C(=O)N2C(C(=O)O)=C(S[C@@H]3CN[C@H](C(=O)N(C)C)C3)[C@H](C)[C@H]12 [Meropenem] |  | MIC ([4]; Bacteroides fragilis, 460, read-out: MIC alone): 128 µg/mL; MIC ([5]; Bacteroides fragilis, 262, read-out: MIC alone): 128 µg/mL |
| C[C@H](CS)C(=O)N1CCC[C@H]1C(=O)O [captopril, N-(3'-mercapto-2'(S)-methylpropionyl)-L-proline, reference compound] |  | activity against Bacillus cereus II metallo-β-lactamase [2]: weak but significant activity; activity against Xanthomonas maltophilia L-1 metallo-β-lactamase [3]: weak but significant activity |
